Several values for one entry are separate records, joined by “and”; a condition that tells them apart may be missing. Identical values can stand only once.
Experiments:
[1] = test system: A2A/A2B adenosine receptor; test: cAMP assay in CTL; type: cell-based, mice; conditions: control CTL; cAMP inducer 10 μM (FIG. 6 legend), 15 min
Description: Stimulation of cAMP production and measurement of cAMP levels were performed as described previously (Apasov et al., 2000). […]; from Tocris, Ellisville, Mo.), or forskolin (adenylate cyclase activator; from Sigma). […]

CTL = test: IFN-γ production from CTL restimulated by immobilized anti-CD3 and anti-CD28 mAbs (ELISA); type: cell-based, mice; parameters: IFN-γ levels (%) of corresponding CTL without CGS/NECA / IFN-γ levels (%), None (reference = 100): unit of the concentration uncertain; conditions: for IFN-γ levels (%) of corresponding CTL without CGS/NECA: anti-CD3/anti-CD28 24 h in presence of the agonist (10 (unit uncertain)); for IFN-γ production: control CTL restimulated with anti-CD3 mAb, agonist 10 μM; for IFN-γ levels: restimulation without agonist (None); for IFN-γ levels (%), None (reference = 100): no agonist at restimulation
Description: CTL (2×10^5 cells) were washed twice with media and restimulated by plate-bound anti-CD3 and anti-CD28 monoclonal antibodies (mAb) (BD Biosciences, San Diego, Calif.). Anti-CD3 mAb (2 μg ml^−1) and anti-CD28 mAb (1 μg ml^−1) diluted in PBS were immobilized in a flat-bottom 96-well plastic culture plate for 1 h at 37° C. before use. In order to examine anti-tumor cellular response, CTL (2×10^5 cells) were also cultured with mitomycin C-treated P815 mastocytoma (2.5×10^5 cells). […]. Culture supernatant after 24-48 h was assayed for IFN-γ levels by ELISA.

CD8+ T cells = test: Flowcytometric analysis (CD8 proportion, intracellular IFN-γ staining); type: cell-based, mice; conditions: for reduction of IFN-γ producers: control CTL, agonist 10 μM
Description: Cells recovered from mixed lymphocyte culture were labeled with phycoerythrin-conjugated anti-CD8, allophycocyanin-conjugated anti-CD4 and fluorescein-conjugated anti-CD69 mAb, and were analyzed by FACSCalibur (BD Biosciences). Cytokine production from CTL was analyzed by intracellular staining as described (Nishimura et al., 1999). After the stimulation with immobilized anti-CD3 and anti-CD28 mAb for 24 h, cells were further incubated in the presence of brefeldin A (10 μg ml^−1) for 2 h. Cells were fixed with 4% parafolmaldehyde-PBS for 15 min, permeabilized with permeabilizing buffer (50 mM NaCl, 5 mM EDTA, 0.02% NaN3, 0.5% Triton X-100, 10 mM Tris-HCl, pH 7.5) for 15 min, and stained with fluorescein-labeled anti-IFN-γ mAb. IFN-γ-producing CD8^+ cells were identified by cell surface staining using phycoerythrin-conjugated anti-CD8 mAb. All antibodies were obtained from BD Biosciences.

[2] = test system: mixed lymphocyte culture of C57BL/6 and DBA/2 spleen cells (CTL); test: Mixed lymphocyte culture: cell proliferation ([3H] thymidine incorporation) and cell number; type: cell-based, mice; conditions: for cell number, % of control: primary mixed lymphocyte culture 5 days
Description: (§1) Antigen-specific cytotoxic T cells were induced by allogenic mixed lymphocyte culture using spleen cells from C57BL/6 (H-2^b) and DBA/2 (H-2^d) mice. Spleen cells from DBA/2 mice were pretreated with 50 μg ml^−1 mitomycin C (Sigma; St. Louis, Mo.) for 30 min at 37° C. After washing three times by centrifugation, 2×10^6 DBA/2 spleen cells (stimulator) were mixed with 6×10^6 C57BL/6 spleen cells (responder) in 2 ml of RPMI1640 medium containing 10% fetal calf serum. The cells were cultured for 5 days in a 12 well plastic plate. In some experiments, CTL (2×10^6 cells) were restimulated on day 5 using mitomycin C-treated DBA/2 spleen cells (4×10^6 cells). The restimulated cells were cultured for additional 2 days, and were analyzed on day 7.
(§2) Culture supernatant was collected 5 days after the set up of mixed lymphocyte culture or 2 days after restimulation and was stored at 4° C. for subsequent measurement of interferon-γ (IFN-γ) levels. IFN-γ was quantified by ELISA (R&D Systems; Minneapolis, Minn.) according to manufacturer's instruction. Cells were incubated for additional 4 h in the presence of 1 μCi [3H] thymidine (American Radiolabeled Chemicals, St. Louis, Mo.) and radioactivity of incorporated thymidine was counted.

[3] = test system: mixed lymphocyte culture of C57BL/6 and DBA/2 spleen cells (CTL); test: IFN-γ levels in mixed lymphocyte culture supernatant (ELISA); type: cell-based, mice; conditions: for IFN-γ levels in the culture supernatant, decreased to: primary mixed lymphocyte culture 5 days
Description: as §1, §2

P815 mastocytoma = test: Cytotoxicity assay, 51Cr release
Description: Cytotoxicity of T cells against P815 mastocytoma (H-2^d) was determined by ^51Cr release assay. Initially, P815 cells (2×10^6) were incubated with 100 μCi [^51Cr] sodium chromate (Perkin Elmer, Boston, Mass.) for 1 h at 37° C. The cells were washed for three times by centrifugation to remove excess radioactivity. The labeled P815 cells (1×10^4 cells) were mixed with the effector cells recovered from mixed lymphocyte culture in a volume of 150 μl. […] Sedimentation of the cells in a v-bottom 96 well plate by brief centrifugation was followed by incubation at 37° C. After 4 h, ^51Cr release in the supernatant from target cells was counted using γ-radiation counter. Spontaneous ^51Cr release was measured by culturing target cells alone. Maximum ^51Cr release was measured by adding 1N hydrochloric acid to the same number of target cells. Cytotoxicity was calculated as percentage cell lysis when spontaneous and maximum ^51Cr release were set to 0% and 100%, respectively.

[4] = CTL developed with NECA (0.1 (unit uncertain))
[5] = CTL developed with NECA (1 (unit uncertain))
[6] = CTL developed with NECA (10 (unit uncertain))
[7] = NECA (0.1-1 μM) added only for 2 days after restimulation of 5-day CTL

## CCNC(=O)[C@H]1O[C@@H](n2cnc3c(N)nc(NCCc4ccc(CCC(=O)O)cc4)nc32)[C@H](O)[C@@H]1O [CGS]
[1]
  increase of cAMP levels: 7.4 fold
CTL; [4]
  IFN-γ levels (%) of corresponding CTL without CGS/NECA: 57 ± 8 %
CTL; [5]
  IFN-γ levels (%) of corresponding CTL without CGS/NECA: 67 ± 10 %
CTL; [6]
  IFN-γ levels (%) of corresponding CTL without CGS/NECA: 80 ± 13 %
CTL; Control CTL
  IFN-γ levels (%) of corresponding CTL without CGS/NECA: 44% and 44 ± 11%
CTL
  IFN-γ production: strongly inhibited
CTL; negatively selected NECA-CTL tested for inhibition by CGS
  IFN-γ producing capacity retained: up to 80%
CD8+ T cells
  reduction of IFN-γ producers: 70%

## CCNC(=O)[C@H]1O[C@@H](n2cnc3c(N)ncnc32)[C@H](O)[C@@H]1O [NECA, 5′-N-ethylcarboxamidoadenosine]
[2]; [7]
  proliferation of CTL after restimulation: inhibit proliferation of CTL
[2]; NECA 0.1 μM
  cell number, % of control: 78%
[2]; NECA 1 μM
  cell number, % of control: 72%
[2]; NECA 10 μM
  cell number, % of control: 68%
[2]; primary mixed lymphocyte culture, 5 days in the presence of NECA (0.1-10 μM)
  Cell proliferation, [3H] thymidine incorporation, decreased to: 30-40%
[3]; [7]
  IFN-γ levels in the culture supernatant after restimulation: inhibit
[3]; 10^−5 M NECA
  IFN-γ levels in the culture supernatant, decreased to: 18%
[3]; 10^−7 M NECA
  IFN-γ levels in the culture supernatant, decreased to: 44%
[1]
  increase of cAMP levels: 11.1 fold
CTL; CTL developed with NECA 0.1 μM (table; 0.1 μM)
  IFN-γ levels: 3722 pg/mL
CTL; CTL developed with NECA 1 mM (table; 1 μM)
  IFN-γ levels: 2327 pg/mL
CTL; CTL developed with NECA 10 mM (table; 10 μM)
  IFN-γ levels: 1089 pg/mL
CTL; [4]
  IFN-γ levels (%) of corresponding CTL without CGS/NECA: 44 ± 12 %
  IFN-γ levels (%), None (reference = 100): 100 ± 23%
CTL; [5]
  IFN-γ levels (%) of corresponding CTL without CGS/NECA: 56 ± 8 %
  IFN-γ levels (%), None (reference = 100): 100 ± 19%
CTL; [6]
  IFN-γ levels (%) of corresponding CTL without CGS/NECA: 60 ± 8 %
  IFN-γ levels (%), None (reference = 100): 100 ± 5%
CTL; Control CTL
  IFN-γ levels (%) of corresponding CTL without CGS/NECA: 28 ± 7%
CTL
  IFN-γ production: strongly inhibited
CD8+ T cells; NECA added only for 2 days after restimulation
  proportion of CD8+ T cells in the expanded cells: unchanged from control CTL
CD8+ T cells
  reduction of IFN-γ producers: 70%
P815 mastocytoma; CTL from primary culture with 10^−5 M NECA, effector-target ratio 5:1
  Cytotoxicity, % of control: 33%
P815 mastocytoma; NECA added only for 2 days after restimulation, effector-target ratio 5:1, 2.5:1, 1.25:1
  cytotoxicity against P815: not impaired

From patent US8883500B2, “Method of preparing adenosine-resistant anti-tumor T lymphocytes for adoptive immunotherapy” (Northeastern University, priority 2008, dated 2014)
